Assay results as given in patent US12281149B2, “Modulators of G-protein coupled receptors” (priority 2021, dated 2025).
Like-named read-outs stand apart in the source and are kept apart here. *1 amine or outer side, *2 acyl side, *3 side chain or, on linkers, in order; H or OH if unused. Where a SMILES comes first, the peptide text is derived from it. Side-chain parts run from the residue outwards. [ ]: non-standard residue; d: D form. The star is where a group is joined. Isobutyryl(2-(3-CN-5-F-Ph)) = CC(C)(C(=O)*)c1cc(F)cc(C#N)c1; C20 diacid = O=C(O)CCCCCCCCCCCCCCCCCCC(=O)*; αMePhe(2-F) = C[C@](N)(Cc1ccccc1F)C(=O)O; γGlu = O=C(O)[C@H](CCC(=O)[*:2])N[*:1]; X51 = COc1cccc(C2(C(=O)*)CCCC2)c1; X32 = CC(C)(CN[*:1])C(=O)[*:2]; X23 = CC(C)(C(=O)*)c1ccncc1; X16 = FC(F)(F)c1cccc(N*)c1; AEEA = NCCOCCOCC(=O)O; Aib = CC(C)(N)C(=O)O; CO = O=C([*:1])[*:2]; X12 = Fc1cccc(N*)c1; GABA = NCCCC(=O)O; βAla = NCCC(=O)O

Key:
Assay type in all cases: cell-based
GIP receptor [1] = target: T1, GIP receptor (Homo sapiens, UniProt P48546); assay: PathHunter β-arrestin assay, GIP receptor; design: host or cells: PathHunter CHO-K1 GIPR β-Arrestin Cell Line
T1 sequence (P48546 22-466): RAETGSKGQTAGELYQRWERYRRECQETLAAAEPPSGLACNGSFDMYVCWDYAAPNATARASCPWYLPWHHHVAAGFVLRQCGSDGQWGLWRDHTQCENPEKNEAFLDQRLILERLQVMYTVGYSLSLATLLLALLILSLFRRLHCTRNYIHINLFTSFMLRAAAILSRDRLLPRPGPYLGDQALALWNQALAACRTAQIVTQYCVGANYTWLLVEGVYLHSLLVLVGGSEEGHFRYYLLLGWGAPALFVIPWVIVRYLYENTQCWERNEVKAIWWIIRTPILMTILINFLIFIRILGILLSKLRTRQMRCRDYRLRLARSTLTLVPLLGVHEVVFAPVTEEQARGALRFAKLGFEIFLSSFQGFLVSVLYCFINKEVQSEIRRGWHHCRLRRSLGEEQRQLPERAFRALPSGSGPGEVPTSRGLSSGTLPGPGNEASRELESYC

GLP-1 receptor [2] = target: T2, GLP-1 receptor (Homo sapiens, UniProt P43220); assay: PathHunter β-arrestin assay, GLP-1 receptor; design: host or cells: PathHunter CHO-K1 GLP1R β-Arrestin Cell Line
Description: β-arrestin-2 recruitment for GLP-1 receptor or GIP receptor was measured using the DiscoverX PathHunter Detection Kit and PathHunter® CHO-K1 GLPIR β-Arrestin Cell Line or PathHunter® CHO-K1 GIPR β-Arrestin Cell Line, respectively). Briefly, cells were grown in Ham's F12 Nutrient Mix with 10% FBS and lifted with Cell dissociation buffer, Enzyme free, PBS based (ThermoFisher). Harvested cells were pelleted and resuspended in Assay Complete Cell Plating Reagent 2 and 5000 cells per well were plated in tissue culture treated 384-well small volume white assay plates. Plates were then incubated at 37° C. and 5% CO2 overnight. The media was then replaced with fresh Assay Complete Cell Plating Reagent 2. Cells were then treated with 10 nl compound in DMSO using an ECHO 550 acoustic dispenser (Labcyte) in a 20-point dose response format in duplicate for 90 min at 37° C. The assay was then completed according to the manufacturer's instructions. Luminescence was measured using a Perkin Elmer Envision plate reader. Raw data was normalized to the maximum signal from GLP-1 or GIP (high) and DMSO (low). Dose response curves were analyzed using GraphPad Prism 9.0.

GIP receptor [3] = target: T1, GIP receptor; assay: HitHunter cAMP assay, GIP receptor; settings: for Emax: read-out: Emax GIP-1R
GLP-1 receptor [4] = target: T2, GLP-1 receptor; assay: HitHunter cAMP assay, GLP-1 receptor; settings: for Emax: read-out: Emax GLP-1R
[5] = β-arrestin-2 recruitment, PathHunter CHO-K1 GIPR β-Arrestin Cell Line, 90 min at 37° C., normalized to GIP, read-out: GIPR β Arrestin EC50
[6] = β-arrestin-2 recruitment, PathHunter CHO-K1 GLP1R β-Arrestin Cell Line, 90 min at 37° C., normalized to GLP-1, read-out: GLP-1R β Arrestin EC50
[7] = CHO cells stably expressing GIP receptor, cAMP accumulation, 30 min, read-out: EC50 GIP-1R
[8] = CHO cells, cAMP, normalized to maximum signal from GIP (high) and DMSO (low)
[9] = CHO cells stably expressing human GLP-1 receptor, cAMP accumulation, 30 min, read-out: EC50 GLP-1R
[10] = CHO cells, cAMP, normalized to maximum signal from GLP-1 (high) and DMSO (low)

T2 sequence (P43220 24-463): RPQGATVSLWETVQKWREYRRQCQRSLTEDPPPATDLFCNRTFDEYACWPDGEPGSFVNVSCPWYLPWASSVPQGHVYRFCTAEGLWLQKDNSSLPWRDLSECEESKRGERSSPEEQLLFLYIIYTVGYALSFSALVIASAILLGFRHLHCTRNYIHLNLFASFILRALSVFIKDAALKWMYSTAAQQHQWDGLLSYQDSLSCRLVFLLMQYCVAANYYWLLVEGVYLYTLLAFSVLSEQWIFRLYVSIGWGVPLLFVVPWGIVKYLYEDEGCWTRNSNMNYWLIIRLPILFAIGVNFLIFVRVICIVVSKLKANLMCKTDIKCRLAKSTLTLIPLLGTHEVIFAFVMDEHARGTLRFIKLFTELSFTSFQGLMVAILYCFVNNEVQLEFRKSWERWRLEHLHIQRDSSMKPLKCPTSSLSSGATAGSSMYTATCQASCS

| SMILES | EC50 (GIP receptor [1]; [5]) [nM] | EC50 (GLP-1 receptor [2]; [6]) [nM] | EC50 (GIP receptor [3]; [7]) [nM] | Emax (GIP receptor [3]; [8]) [%] | EC50 (GLP-1 receptor [4]; [9]) [nM] | Emax (GLP-1 receptor [4]; [10]) [%] | EC50 (GIP receptor [1]) [nM] | EC50 (GLP-1 receptor [2]) [nM] | EC50 (GIP receptor [3]) [nM] | Emax (GIP receptor [3]; CHO) [%] | EC50 (GLP-1 receptor [4]) [nM] | Emax (GLP-1 receptor [4]; CHO) [%] |
| --- | --- | --- | --- | --- | --- | --- | --- | --- | --- | --- | --- | --- |
| CC[C@H](C)[C@H](NC(=O)[C@H](CC(C)C)NC(=O)[C@H](Cc1c[nH]c2ccccc12)NC(=O)[C@H](CCC(N)=O)NC(=O)[C@@H](NC(=O)[C@H](Cc1ccccc1)NC(=O)[C@H](C)NC(=O)[C@H](CCCCNC(=O)COCCOCCNC(=O)COCCOCCNC(=O)CC[C@H](NC(=O)CCCCCCCCCCCCCCCCCCC(=O)O)C(=O)O)NC(=O)[C@H](CCC(N)=O)NC(=O)[C@H](C)NC(=O)[C@@H](NC(=O)[C@H](CCCCN)NC(=O)[C@H](CC(=O)O)NC(=O)[C@H](CC(C)C)NC(=O)C(C)(C)NC(=O)[C@@H](NC(=O)[C@H](CO)NC(=O)[C@H](Cc1ccc(O)cc1)NC(=O)[C@H](CC(=O)O)NC(=O)[C@H](CO)NC(=O)[C@@H](NC(=O)[C@H](Cc1ccccc1)NC(=O)[C@@H](NC(=O)CNC(=O)[C@H](CCC(=O)O)NC(=O)C(C)(C)CNC(=O)C(C)(C)c1cc(F)cc(C#N)c1)[C@@H](C)O)[C@@H](C)O)[C@@H](C)CC)[C@@H](C)CC)C(C)C)C(=O)N[C@@H](C)C(=O)NCC(=O)NCC(=O)N1CCC[C@H]1C(=O)N[C@@H](CO)C(=O)N[C@@H](CO)C(=O)NCC(=O)N[C@@H](C)C(=O)N1CCC[C@H]1C(=O)N1CCC[C@H]1C(=O)N1CCC[C@H]1C(=O)N[C@@H](CO)C(N)=O [Compound 192] ({Isobutyryl(2-(3-CN-5-F-Ph))}-[X32]EGTFTSDYSI[Aib]LDKIAQK([AEEA-AEEA-γGlu-C20 diacid])AFVQWLIAGGPSSGAPPPS-NH2) | > 1000 | > 1000 | 1 to 10 | 104 | 0.1 to 1 | 101 | – | – | – | – | – | – |
| CC[C@H](C)[C@H](NC(=O)[C@H](CC(C)C)NC(=O)[C@H](Cc1c[nH]c2ccccc12)NC(=O)[C@H](CCC(N)=O)NC(=O)[C@@H](NC(=O)[C@H](Cc1ccccc1)NC(=O)[C@H](C)NC(=O)[C@H](CCCCNC(=O)COCCOCCNC(=O)COCCOCCNC(=O)CC[C@H](NC(=O)CCCCCCCCCCCCCCCCCCC(=O)O)C(=O)O)NC(=O)[C@H](CCC(N)=O)NC(=O)[C@H](C)NC(=O)[C@@H](NC(=O)[C@H](CCCCN)NC(=O)[C@H](CC(=O)O)NC(=O)[C@H](CC(C)C)NC(=O)C(C)(C)NC(=O)[C@@H](NC(=O)[C@H](CO)NC(=O)[C@H](Cc1ccc(O)cc1)NC(=O)[C@H](CC(=O)O)NC(=O)[C@H](CO)NC(=O)[C@@H](NC(=O)[C@H](Cc1ccccc1)NC(=O)[C@@H](NC(=O)CNC(=O)[C@H](CCC(=O)O)NC(=O)CCNC(=O)C1(c2cccc(OC)c2)CCCC1)[C@@H](C)O)[C@@H](C)O)[C@@H](C)CC)[C@@H](C)CC)C(C)C)C(=O)N[C@@H](C)C(=O)NCC(=O)NCC(=O)N1CCC[C@H]1C(=O)N[C@@H](CO)C(=O)N[C@@H](CO)C(=O)NCC(=O)N[C@@H](C)C(=O)N1CCC[C@H]1C(=O)N1CCC[C@H]1C(=O)N1CCC[C@H]1C(=O)N[C@@H](CO)C(N)=O [Compound 207] ({X51-βAla}-EGTFTSDYSI[Aib]LDKIAQK([AEEA-AEEA-γGlu-C20 diacid])AFVQWLIAGGPSSGAPPPS-NH2) | > 1000 | > 1000 | 1 to 10 | 109 | 1 to 10 | 97 | – | – | – | – | – | – |
| CC[C@H](C)[C@H](NC(=O)[C@H](CC(C)C)NC(=O)[C@H](Cc1c[nH]c2ccccc12)NC(=O)[C@H](CCC(N)=O)NC(=O)[C@@H](NC(=O)[C@H](Cc1ccccc1)NC(=O)[C@H](C)NC(=O)[C@H](CCCCNC(=O)COCCOCCNC(=O)COCCOCCNC(=O)CC[C@H](NC(=O)CCCCCCCCCCCCCCCCCCC(=O)O)C(=O)O)NC(=O)[C@H](CCC(N)=O)NC(=O)[C@H](C)NC(=O)[C@@H](NC(=O)[C@H](CCCCN)NC(=O)[C@H](CC(=O)O)NC(=O)[C@H](CC(C)C)NC(=O)C(C)(C)NC(=O)[C@@H](NC(=O)[C@H](CO)NC(=O)[C@H](Cc1ccc(O)cc1)NC(=O)[C@H](CC(=O)O)NC(=O)[C@H](CO)NC(=O)[C@@H](NC(=O)[C@](C)(Cc1ccccc1F)NC(=O)[C@@H](NC(=O)CNC(=O)[C@H](CCC(=O)O)NC(=O)CCCNC(=O)Nc1cccc(F)c1)[C@@H](C)O)[C@@H](C)O)[C@@H](C)CC)[C@@H](C)CC)C(C)C)C(=O)N[C@@H](C)C(=O)NCC(=O)NCC(=O)N1CCC[C@H]1C(=O)N[C@@H](CO)C(=O)N[C@@H](CO)C(=O)NCC(=O)N[C@@H](C)C(=O)N1CCC[C@H]1C(=O)N1CCC[C@H]1C(=O)N1CCC[C@H]1C(=O)N[C@@H](CO)C(N)=O [Compound 282] ({X12-CO-GABA}-EGT[αMePhe(2-F)]TSDYSI[Aib]LDKIAQK([AEEA-AEEA-γGlu-C20 diacid])AFVQWLIAGGPSSGAPPPS-NH2) | > 1000 | > 1000 | 10 to 100 | 90 | 0.1 to 1 | 92 | – | – | – | – | – | – |
| CC[C@H](C)[C@H](NC(=O)[C@H](CC(C)C)NC(=O)[C@H](Cc1c[nH]c2ccccc12)NC(=O)[C@H](CCC(N)=O)NC(=O)[C@@H](NC(=O)[C@H](Cc1ccccc1)NC(=O)[C@H](C)NC(=O)[C@H](CCCCNC(=O)COCCOCCNC(=O)COCCOCCNC(=O)CC[C@H](NC(=O)CCCCCCCCCCCCCCCCCCC(=O)O)C(=O)O)NC(=O)[C@H](CCC(N)=O)NC(=O)[C@H](C)NC(=O)[C@@H](NC(=O)[C@H](CCCCN)NC(=O)[C@H](CC(=O)O)NC(=O)[C@H](CC(C)C)NC(=O)C(C)(C)NC(=O)[C@@H](NC(=O)[C@H](CO)NC(=O)[C@H](Cc1ccc(O)cc1)NC(=O)[C@H](CC(=O)O)NC(=O)[C@H](CO)NC(=O)[C@@H](NC(=O)[C@H](Cc1ccccc1)NC(=O)[C@@H](NC(=O)CNC(=O)[C@H](CCC(=O)O)NC(=O)CCCNC(=O)CNC(=O)Nc1cccc(C(F)(F)F)c1)[C@@H](C)O)[C@@H](C)O)[C@@H](C)CC)[C@@H](C)CC)C(C)C)C(=O)N[C@@H](C)C(=O)NCC(=O)NCC(=O)N1CCC[C@H]1C(=O)N[C@@H](CO)C(=O)N[C@@H](CO)C(=O)NCC(=O)N[C@@H](C)C(=O)N1CCC[C@H]1C(=O)N1CCC[C@H]1C(=O)N1CCC[C@H]1C(=O)N[C@@H](CO)C(N)=O [Compound 263] ({X16-CO}-G[GABA]EGTFTSDYSI[Aib]LDKIAQK([AEEA-AEEA-γGlu-C20 diacid])AFVQWLIAGGPSSGAPPPS-NH2) | – | – | – | – | – | – | > 1000 | > 1000 | 1 to 10 | 104 | 1 to 10 | 98 |
| CC[C@H](C)[C@H](NC(=O)[C@H](CC(C)C)NC(=O)[C@H](Cc1c[nH]c2ccccc12)NC(=O)[C@H](CCC(N)=O)NC(=O)[C@@H](NC(=O)[C@H](Cc1ccccc1)NC(=O)[C@H](C)NC(=O)[C@H](CCCCNC(=O)COCCOCCNC(=O)COCCOCCNC(=O)CC[C@H](NC(=O)CCCCCCCCCCCCCCCCCCC(=O)O)C(=O)O)NC(=O)[C@H](CCC(N)=O)NC(=O)[C@H](C)NC(=O)[C@@H](NC(=O)[C@H](CCCCN)NC(=O)[C@H](CC(=O)O)NC(=O)[C@H](CC(C)C)NC(=O)C(C)(C)NC(=O)[C@@H](NC(=O)[C@H](CO)NC(=O)[C@H](Cc1ccc(O)cc1)NC(=O)[C@H](CC(=O)O)NC(=O)[C@H](CO)NC(=O)[C@@H](NC(=O)[C@H](Cc1ccccc1)NC(=O)[C@@H](NC(=O)CNC(=O)[C@H](CCC(=O)O)NC(=O)CCNC(=O)C(C)(C)c1ccncc1)[C@@H](C)O)[C@@H](C)O)[C@@H](C)CC)[C@@H](C)CC)C(C)C)C(=O)N[C@@H](C)C(=O)NCC(=O)NCC(=O)N1CCC[C@H]1C(=O)N[C@@H](CO)C(=O)N[C@@H](CO)C(=O)NCC(=O)N[C@@H](C)C(=O)N1CCC[C@H]1C(=O)N1CCC[C@H]1C(=O)N1CCC[C@H]1C(=O)N[C@@H](CO)C(N)=O [Compound 238] ({X23-βAla}-EGTFTSDYSI[Aib]LDKIAQK([AEEA-AEEA-γGlu-C20 diacid])AFVQWLIAGGPSSGAPPPS-NH2) | > 1000 | > 1000 | 10 to 100 | 100 | 0.1 to 1 | 91 | – | – | – | – | – | – |
